We go through 15 compounds from patent publication US20100144729A1, “COUMARIN DERIVATIVES” (priority 2007, published 2010).

One assay concerns the target T1, S1P-1 (Homo sapiens, UniProt P21453).
T1 construct: expressed in transfected cells; host or cells: CHO cells under G418 selection
The assay can be described thus: FLIPR calcium flux assay, S1P-1. It counts as cell-based. To be noted: CHO cells expressing S1P receptor. The method, then:
(§1) Compounds of the invention are tested for agonist activity on S1P1, S1P3, S1P5, and […] with a FLIPR calcium flux assay. Briefly, CHO cells expressing an S1P receptor are maintained in F-12K medium (ATCC), containing 5% FBS, with 500 ug/ml of G418. Prior to the assay, the cells are plated in 384 black clear bottom plates at the density of 10,000 cells/well/25 ? l in the medium of F-12K containing 1% FBS. The second day, the cells are washed three times (25 μl/each) with washing buffer. About 25 μl of dye are added to each well and incubated for 1 hour at 37° C. and 5% CO2. The cells are then washed four times with washing buffer (25 μl/each). The calcium flux is assayed after adding 25 μl of SEW2871 (published by Rosen et al., used as reference) solution to each well of cells. The same assay is performed with cells expressing each of the different S1P receptors. Titration in the FLIPR calcium flux assay is recorded over a 3-minute interval, and quantitated as maximal peak height percentage response relative to S1P-1 activation. The compounds of the invention are active in this assay at a concentration of from 10^−12 and 3.10^−[…]. For example example 13 as an EC50 92 nm for S1P-1 and an EC50>1 um for all the other isoforms (S1P-2, S1P-3, S1P-4, S1P-5).

The target of a further assay is T2, S1P-2 (Homo sapiens, UniProt O95136).
T2 construct: expressed in transfected cells; host or cells: CHO cells under G418 selection
The assay can be described thus: FLIPR calcium flux assay, S1P-2. It counts as cell-based. The conditions noted are these: CHO cells expressing S1P receptor. Here is the method: as §1
(Calcium flux is commonly read through the fluorescence of an indicator in the cells.)

For the next assay, the target named is T3, S1P-3 (Homo sapiens, UniProt Q99500).
T3 construct: expressed in transfected cells; host or cells: CHO cells under G418 selection
The assay can be described thus: FLIPR calcium flux assay, S1P-3. It counts as cell-based. To be noted: CHO cells expressing S1P receptor. The method, then:
as §1

The next assay has as its target T4, S1P-5 (Homo sapiens, UniProt Q9H228).
T4 construct: expressed in transfected cells; host or cells: CHO cells under G418 selection
The assay is described as follows: FLIPR calcium flux assay, S1P-5. It counts as cell-based. To be noted: CHO cells expressing S1P receptor. Here is the method: as §1

The next assay deals with T5, S1P-4 (Homo sapiens, UniProt O95977).
T5 construct: expressed in transfected cells; host or cells: CHO cells under G418 selection
T5 sequence (O95977 1-384): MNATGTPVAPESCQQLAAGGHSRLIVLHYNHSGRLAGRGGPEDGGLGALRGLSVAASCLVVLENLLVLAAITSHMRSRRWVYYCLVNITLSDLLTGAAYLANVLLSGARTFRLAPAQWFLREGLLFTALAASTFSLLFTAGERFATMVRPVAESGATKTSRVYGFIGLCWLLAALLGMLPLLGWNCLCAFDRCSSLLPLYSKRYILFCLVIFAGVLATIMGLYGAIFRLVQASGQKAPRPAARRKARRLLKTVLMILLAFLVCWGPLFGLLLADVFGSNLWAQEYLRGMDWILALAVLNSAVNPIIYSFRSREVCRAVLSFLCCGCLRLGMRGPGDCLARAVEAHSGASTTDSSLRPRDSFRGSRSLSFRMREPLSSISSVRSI
The assay can be described thus: FLIPR calcium flux assay, S1P-4. It counts as cell-based. The conditions noted are these: CHO cells expressing S1P receptor. Here is the method:
as §1

The next assay addresses T6, S1P1 (EDG-1) (Homo sapiens, UniProt P21453).
T6 construct: c-myc (N); expressed in transfected cells; homogenized membranes
The assay is described as follows: GPCR activation assay measuring GTP [γ-35S] binding to membranes from CHO cells expressing human EDG receptors (S1P1). It counts as biochemical. To be noted: CHO cell membranes expressing human EDG-1, read-out: S1P-1 EC50. Here is the method:
A.1 In Vitro: GPCR Activation Assay Measuring GTP [γ-^35S] Binding to Membranes Prepared From CHO Cells Expressing Human EDG Receptors
S1P1 (EDG-1) GTP [γ-^35S] binding assay: Homogenized membranes are prepared from CHO cell clones stably expressing a human EDG-1 N-terminal c-myc tag. Cells are grown in suspension in two 850 cm^2 roller bottles for three or fours days before harvesting. The cells are centrifuged down, washed once with cold PBS, and resuspended in ≦20 ml of Buffer A (20 mM HEPES, pH 7.4, 10 mM EDTA, EDTA-free complete protease inhibitor cocktail [1 tablet/25 ml]). The cell suspension is homogenized on ice, using a Polytron homogenizer at 30000 rpm at three intervals of 15 seconds each. The homogenate is first centrifuged at 2000 rpm on a tabletop low speed centrifuge for 10 minutes. The supernatant, after passing through a cell strainer, is then re-centrifuged at 50,000×g for 25 minutes at 4° C. The pellet is resuspended into buffer B (15% glycerol, 20 mM HEPES, pH 7.4, 0.1 mM EDTA, EDTA-free complete protease inhibitor cocktail [1 tablet/10 ml]). Protein concentration of the preparation is determined using the BCA Protein Assay kit (Pierce) using BSA as standard. The membranes are aliquoted and kept frozen at −80° C.
Solutions of test compounds ranging from 10 mM to 0.01 nM are prepared in DMSO. S1P is diluted in 4% BSA solution as positive controls. The desired amount of membrane preparation is diluted with ice-cold assay buffer (20 mM HEPES, pH 7.4, 100 mM NaCl, 10 mM MgCl2, 0.1% Fatty acid-free BSA, 5 μM GDP) and vortexed well. 2 μl or less of compound is distributed into each well of a round-bottom 96-well polystyrene assay plate, followed by addition of 100 μl of diluted membranes (3-10 μg/well) and kept on ice until the addition of hot GTPγS. [^35S]-GTPγS is diluted 1:1000 (v/v) with cold assay buffer and 100 μl is added into each well. The reaction is carried out at room temperature for 90 minutes before the membranes are harvested onto Perkin-Elmer Unifilter® GF/B-96 filter plate using a Packard Filtermate Harvester. After several washes with wash buffer (20 mM HEPES, pH 7.4, 100 mM NaCl, 10 mM MgCl2), and a rinse with 95% ethanol, the filter is dried in a 37° C. oven for 30 minutes. MicroScint-20 is added and the plate sealed for scintillation counting on TopCount. EC50 values are obtained by fitting the GTP [γ-^35S] binding curves (raw data) with the dose response curve-fitting tool of GraphPad Prism. Six or twelve different concentrations are used to generate a concentration response curve (using three data points per concentration).

Molecules are shown by their SMILES.

By EC50 is commonly meant the concentration at which the effect is half-maximal.

T6 sequence (P21453 whole entry): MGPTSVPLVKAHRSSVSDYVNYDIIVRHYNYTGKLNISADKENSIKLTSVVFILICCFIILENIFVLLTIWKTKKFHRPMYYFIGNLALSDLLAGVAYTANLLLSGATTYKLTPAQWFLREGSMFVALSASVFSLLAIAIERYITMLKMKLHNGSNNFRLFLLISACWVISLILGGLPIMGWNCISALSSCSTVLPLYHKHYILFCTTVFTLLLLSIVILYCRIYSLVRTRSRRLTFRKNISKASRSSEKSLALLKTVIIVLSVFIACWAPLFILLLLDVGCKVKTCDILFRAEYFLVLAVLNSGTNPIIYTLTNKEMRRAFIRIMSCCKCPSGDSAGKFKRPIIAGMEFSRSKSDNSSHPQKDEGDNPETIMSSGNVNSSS
T3 sequence (Q99500 whole entry): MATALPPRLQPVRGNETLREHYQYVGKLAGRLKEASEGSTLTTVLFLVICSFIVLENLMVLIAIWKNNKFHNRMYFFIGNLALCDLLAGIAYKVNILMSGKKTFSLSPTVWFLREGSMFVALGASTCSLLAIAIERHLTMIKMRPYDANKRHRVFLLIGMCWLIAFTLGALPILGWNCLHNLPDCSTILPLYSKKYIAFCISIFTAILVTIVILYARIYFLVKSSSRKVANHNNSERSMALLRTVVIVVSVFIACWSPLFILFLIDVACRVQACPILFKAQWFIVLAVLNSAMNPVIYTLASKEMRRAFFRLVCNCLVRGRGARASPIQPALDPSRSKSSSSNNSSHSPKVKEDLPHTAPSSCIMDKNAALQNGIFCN
T1 sequence (P21453 whole entry): as the sequence (P21453 whole entry) above
T4 sequence (Q9H228 whole entry): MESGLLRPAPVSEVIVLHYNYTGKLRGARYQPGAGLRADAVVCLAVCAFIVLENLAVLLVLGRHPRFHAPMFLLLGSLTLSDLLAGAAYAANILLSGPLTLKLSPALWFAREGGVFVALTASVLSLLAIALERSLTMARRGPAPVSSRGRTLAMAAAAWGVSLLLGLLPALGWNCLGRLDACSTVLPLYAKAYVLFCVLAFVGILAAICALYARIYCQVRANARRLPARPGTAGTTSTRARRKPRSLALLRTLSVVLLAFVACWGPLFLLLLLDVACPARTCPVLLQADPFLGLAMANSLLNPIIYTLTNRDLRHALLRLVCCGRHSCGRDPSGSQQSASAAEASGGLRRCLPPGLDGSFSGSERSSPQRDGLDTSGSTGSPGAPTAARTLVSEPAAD
T2 sequence (O95136 whole entry): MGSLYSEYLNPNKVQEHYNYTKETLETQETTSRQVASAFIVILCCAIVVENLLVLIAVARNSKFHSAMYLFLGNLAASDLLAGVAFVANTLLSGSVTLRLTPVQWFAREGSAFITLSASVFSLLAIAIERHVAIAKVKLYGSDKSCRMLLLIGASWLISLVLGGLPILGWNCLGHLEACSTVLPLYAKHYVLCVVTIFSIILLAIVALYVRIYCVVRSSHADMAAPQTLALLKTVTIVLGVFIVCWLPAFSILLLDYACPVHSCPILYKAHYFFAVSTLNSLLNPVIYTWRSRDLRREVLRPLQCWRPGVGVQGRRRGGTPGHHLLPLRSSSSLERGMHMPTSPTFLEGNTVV

With `CCCc1c(OC)ccc2cc(C(=O)Nc3ccc(C4CCCN4C)cc3)c(=O)oc12` (racemic) [Example 13], the 50% effective concentration (EC50) on S1P-1 is 92 nM; at S1P-2, greater than 1000 nM; on S1P-3, greater than 1000 nM; on S1P-5 it was greater than 1000 nM; on S1P-4, greater than 1000 nM.
With `CCCc1c(OC)ccc2cc(C(=O)Nc3ccc(C4CNCCN4)cc3)c(=O)oc12` (racemic) [Example 43], at S1P1 (EDG-1), the concentration giving a half-maximal response (EC50) came out at 0.1 nM.
For the compound `COc1ccc2cc(C(=O)Nc3ccc(C4CCCCN4)cc3)c(=O)oc2c1OC(C)C` (single isomer, unassigned) [Example 23], on S1P1 (EDG-1), the concentration for a half-maximal effect (EC50) worked out at 75.5 nM.
Consider `COc1ccc2cc(C(=O)Nc3ccc(C4CNCCO4)cc3)c(=O)oc2c1OC(C)C` (single isomer, unassigned) [Example 41], for which the EC50 at S1P1 (EDG-1) is 2.9 nM.
The same measure, in the same setting: under `CCc1c(OC)ccc2cc(C(=O)Nc3ccc(C4CNCCN4)cc3)c(=O)oc12` (single isomer, unassigned) [Example 44] stands 0.2 nM; under `CCOc1c(OC)ccc2cc(C(=O)Nc3ccc(C4CNCCN4)cc3)c(=O)oc12` (single isomer, unassigned) [Example 53], 4.6 nM; under `CCCc1c(OC)ccc2cc(C(=O)Nc3ccc(C4CCCN4)cc3)c(=O)oc12` (stereo not shown) [Example 1, 7-Methoxy-2-oxo-8-propyl-2H-chromene-3-carboxylic acid (4-pyrrolidin-2-yl-phenyl)-amide], 0.1 nM.
With `CCOc1c(OC)ccc2cc(C(=O)Nc3ccc([C@H]4CCCN4)cc3)c(=O)oc12` [Example 8], the concentration for a half-maximal effect (EC50) on S1P1 (EDG-1) turned out to be 7.5 nM.
Turning to `CCCc1c(OC)ccc2cc(C(=O)Nc3ccc([C@H]4COCCN4)cc3)c(=O)oc12` [Example 27], the EC50 on S1P1 (EDG-1) was 0.2 nM.
Still for that read-out and setting: the same measure for `CCc1c(OC)ccc2cc(C(=O)Nc3ccc([C@H]4CCCN4)cc3C)c(=O)oc12` [Example 62]: 0.5 nM; for `COc1ccc2cc(C(=O)Nc3ccc([C@H]4CCCN4)c(F)c3)c(=O)oc2c1C` [Example 72]: 1.8 nM.
Still for that read-out and setting: the same measure for `Cc1cc([C@H]2CCCN2)ccc1NC(=O)c1cc2ccc(OC(C)C)c(OC(C)C)c2oc1=O` [Example 82]: 2.4 nM.
On the same count and under the same terms, under `CCOc1ccc2cc(C(=O)Nc3ccc([C@H]4CCCN4)cc3F)c(=O)oc2c1OCC` [Example 89] stands 12.8 nM; under `COc1ccc2cc(C(=O)Nc3ccc([C@H]4COCCN4)c(C)c3)c(=O)oc2c1OC(C)C` [Example 90], 6.2 nM.
`COc1ccc2cc(C(=O)Nc3cccc([C@H]4COCCN4)c3)c(=O)oc2c1OC(C)C` [Example 96]: the EC50 at S1P1 (EDG-1) turned out to be 2.8 nM.
